Assay results taken from US20240130999A1, “Inhibition of SLC4A4 in the Treatment of Cancer” (VIB VZW, priority 2021, published 2024).

Columns and labels:
KPC orthotopic tumors [1] = assay: DIDS treatment of mice bearing orthotopic KPC tumors (tumor growth, tumor weight); type: in vivo, mouse; details: 15 mg/kg DIDS i.p. bi-daily for 10 days
Experimental: C57BL6/N were injected subcutaneously in the right flank with 1*10^6 Panc02 cells (pancreatic cancer cell line), 2*10^6 KP cells (lung cancer cell line), 0.8*10^6 KR158B cells (glioblastoma cell line), or 5*106 CMT-93 cells (colorectal cancer cell line) in 200 μl. Tumor growth was monitored by measuring the perpendicular diameters of tumors every other day and mice were sacrificed at a humane endpoint. FVB mice were injected orthotopically in the head of the pancreas with 10′000 KPC cells in 20 μl. Body weight was monitored and mice were sacrificed at a humane endpoint. Alternatively, FVB mice were injected subcutaneously in the right flank with 0,5*10^6 KPC cells in 200 μl. Tumor growth was monitored by measuring the perpendicular diameters of tumors every other day and mice were sacrificed at a humane endpoint. For immunotherapy treatment the mice were treated intraperitoneally (i.p.) with 10 mg/kg of either control IgG, anti-PD-1 (αPD-1), anti-PDL1 (αPDL1), or anti-CTLA-4 (αCTLA-4) antibodies (3×/week). For CD8 depletion mice were injected i.p. with an anti-CD8 antibody (10 mg/kg) 3 days before tumor inoculation and then 1 time per week. For in vivo slc4a4 inhibition, mice were treated with 15 mg/kg of 4,4′-Diisothiocyano-2,2′-stilbenedisulfonic acid (DIDS) i.p. bi-daily for a period of 10 days. […]

KPC orthotopic tumors [2] = assay: FACS analysis of immune infiltrate in orthotopic KPC tumors of DIDS-treated mice; type: in vivo, mouse; details: WT KPC orthotopic tumors, DIDS vs DMSO, flow cytometry
Experimental: C57BL6/N were injected subcutaneously in the right flank with 1*10^6 Panc02 cells (pancreatic cancer cell line), 2*10^6 KP cells (lung cancer cell line), 0.8*10^6 KR158B cells (glioblastoma cell line), or 5*106 CMT-93 cells (colorectal cancer cell line) in 200 μl. Tumor growth was monitored by measuring the perpendicular diameters of tumors every other day and mice were sacrificed at a humane endpoint. FVB mice were injected orthotopically in the head of the pancreas with 10′000 KPC cells in 20 μl. Body weight was monitored and mice were sacrificed at a humane endpoint. Alternatively, FVB mice were injected subcutaneously in the right flank with 0,5*10^6 KPC cells in 200 μl. Tumor growth was monitored by measuring the perpendicular diameters of tumors every other day and mice were sacrificed at a humane endpoint. For immunotherapy treatment the mice were treated intraperitoneally (i.p.) with 10 mg/kg of either control IgG, anti-PD-1 (αPD-1), anti-PDL1 (αPDL1), or anti-CTLA-4 (αCTLA-4) antibodies (3×/week). For CD8 depletion mice were injected i.p. with an anti-CD8 antibody (10 mg/kg) 3 days before tumor inoculation and then 1 time per week. For in vivo slc4a4 inhibition, mice were treated with 15 mg/kg of 4,4′-Diisothiocyano-2,2′-stilbenedisulfonic acid (DIDS) i.p. bi-daily for a period of 10 days. Antibodies: Rat serum IgG (14131) (Sigma-Aldrich); Ultra-LEAF™ Purified PD-1anti-mouse (CD279) RMP1-14 (BioLegend); InVivoMAb anti-mouse CTLA-4 (CD152) (BioCell); InVivoMAb anti-mouse CD8α (BioCell); InVivoMab anti-mouse PD-L1 (B7-H1) (BioCell).
Mice were sacrifice by cervical dislocation and the tumor were harvested in cold PBS. Tumors were minced in alpha MEM (Lonza) containing 0,085 mg/ml Collagenase V (Sigma), 0,125 mg/ml Collagenase D (Roche) and 0,1 mg/ml Dispase (Gibco), and incubated in the same solution for 30 minutes at 37° C. The digested tissues were filtered using a 70-μm pore sized strainer and cells were centrifuged 5 minutes at 300 xg. Red blood cell lysis was performed by using a home-made red blood cell lysis buffer (150 mM NH4Cl, 0.1 mM EDTA, 10 mM KHCO3, pH 7.4. Single cells were resuspended in FACS buffer (PBS containing 2% FBS and 2 mM EDTA) and incubated for 15 minutes with Mouse BD Fc Block purified anti-mouse CD16/CD32 mAb (BD-Pharmingen) and stained for 30 minutes at 4° C. with the following antibodies: Fixable viability dye (eFluor™ 450 or eFluor™ 506, 1:500),CD45 (PE, 1:200), TCRβ (FITC, 1:300), CD4 (PercPcy5.5, 1:400), CD8 (APC-cy7, 1:300), IFNγ (PE-cy7, 1:100), Foxp3 (APC, 1:100), TBet1 (BV421, 1:50)-from BD Biosciences. Cells were subsequently washed and resuspended in FACS buffer before FACS analysis by a FACS Canto II (BD Biosciences). Data was analyzed by Flowio (TreeStar).

O=S(=O)(O)c1cc(N=C=S)ccc1C=Cc1ccc(N=C=S)cc1S(=O)(=O)O [DIDS, 4,4′-diisothiocyano-2,2′-stilbenedisulfonic acid]
tumor reduction upon treatment (KPC orthotopic tumors [1]; Slc4a4-KD orthotopic KPC tumors): no differences in tumor reduction
tumor growth (KPC orthotopic tumors [1]; wild-type (control, NT) orthotopic KPC tumors): reduction in tumor growth
CD8+ T cells infiltration (KPC orthotopic tumors [2]): increase
CD8+/CD4+ T cell ratio (KPC orthotopic tumors [2]): increase
IFNγ expression of CD8+ T cells (KPC orthotopic tumors [2]): increase
number of CD4+ T cells (KPC orthotopic tumors [2]): no differences
number of Treg (KPC orthotopic tumors [2]): no differences
